Experimental data from patent US20130345215A1, “PYRAZOLOPYRIMIDONE AND PYRAZOLOPYRIDONE INHIBITORS OF TANKYRASE” (Genentech, Inc., priority 2012, published 2013).
Read-outs that look alike come from different tables or passages of the source. Values belong to the compound of their own block, whether it stands above or below them.

Experiments:
Tankyrase 1 (TNKS1) = biological target: T1, Tankyrase 1 (TNKS1) (Homo sapiens, UniProt O95271); assay: μHTS-TNKS-IWR2 TR-FRET Binding Assay (Example 118), His6-TNKS1
T1 construct: His6-TNKS1, MW=28.2 KDa (construct: 1088-1327, 1266M)
Experimental: (§1) μHTS-TNKS-IWR2 TR-FRET Binding Assay (10 μL/well in BD1536-well plate, a single point)
(§2) Reagents and Stock Solutions
(§3) Biotin-4-((1S,2R,6S,7R)-3,5-Dioxo-4-aza-tricyclo[5.2.1.0*2,6]dec-8-en-4-yl)-N-(4-methyl-quinolin-8-yl)-benzamide (Biotin-IWR2): 10 mM Biotin-IWR2 stock in DMSO, stored at −20° C.
(XAV939) in DMSO, stored at −20° C.
(§4) Assay buffer 1a (AB1a) for TNKS dilution: 50 mM Tris, pH 7.4, 100 mM sodium chloride solution, 1 mM magnesium chloride solution, 1 mM DL-dithiothreitol solution, 0.2 mg/mL bovine serum albumin solution, 0.025% NP-40.
(§5) Assay buffer 1b (AB1b) for Biotin-IWR2 dilution: 50 mM Tris, pH 7.4, 100 mM sodium chloride solution, 1 mM magnesium chloride solution, 1 mM DL-dithiothreitol solution, 0.2 mg/mL bovine serum albumin solution, 0.05% NP-40
(§6) Assay buffer 1c (AB1c) for compound dilution: 50 mM Tris, pH 7.4, 100 mM sodium chloride solution, 1 mM magnesium chloride solution, 1 mM DL-dithiothreitol solution, 0.2 mg/mL bovine serum albumin solution
(§7) Assay buffer 2 (AB2) for Eu/APC: 50 mM Tris, pH 7.4, 100 mM sodium chloride solution, 1 mM magnesium chloride solution, 0.2 mg/mL bovine serum albumin solution
(§8) Reagent Stock Solution Preparation
(§9) Prepare BLANK well stock solution: 5% DMSO/AB1b buffer
(§10) Prepare TNKS 1 stock solution (5× stock): 300 nM TNKS in AB1a buffer. (Alternatively, use TNKS2 or PARP1 stock solutions.)
Transfer 3 μL/well of above solution (solution 1,2,3) to an empty assay plate (BD1536-well plate) as follows: • TOTAL and cpd wells: Solution 1 (Biotin-IWR2): • BLANK wells: Solution 2 (No Biotin-IWR2): • POSITIVE CONTROL wells: Solution 3 (Biotin-IWR2+XAV939)
(§11) Transfer 3 μL/well of the above diluted compound solutions or compound dilution buffer to the above assay plate. Add 2 μL/well of 300 nM TNKS stock solution (4) to every well in the above assay plate. Centrifuge the assay plate at 2100 rpm for 2 min. Incubate the assay plate at 26° C. for 30 minutes. Add 2 μL/well 3.5 nMEu/50 nM APC solution (5) to every well in the above assay plate. Centrifuge the assay plate at 2100 rpm for 2 min. Incubate the assay plate at 26° C. for 60 min.

tankyrase 2 (TNKS2) = biological target: T2, tankyrase 2 (TNKS2) (Homo sapiens, UniProt Q9H2K2); assay: μHTS-TNKS-IWR2 TR-FRET Binding Assay (Example 118), His6-TNKS2 substituted; details: procedure in Example 118 with His6-TNKS2
T2 construct: His6-tankyrase 2 (construct: 934-1166) (His6-TNKS2)
Experimental: as §1, §2
Tankyrase 1 (TNKS1): 184.3 μM=5.2 mg/mL His6-TNKS1, MW=28.2 KDa (construct: 1088-1327, 1266M) in 20 mM Tris pH 8, 150 mM NaCl, 10% glycerol, and 0.5 mM TCEP. Alternatively, His6-tankyrase 2 (construct: 934-1166) (His6-TNKS2) or His6-PARP1 (full length) can be substituted for His6-TNKS 1.
as §3
Positive control: 10 mM 2-(4-Trifluoromethyl-phenyl)-3,5,7,8-tetrahydro-thiopyrano[4,3-d]pyrimidin-4-one (XAV939) in DMSO, stored at −20° C.
APC-anti-His Ab: 8.50 μM SL-APC, 8.26 μM anti-6His antibody-SureLight APC (Columia Bioscience, Catalog Number D3-1711, Lot Number N01010-AAH04)
Assay plate: BD 1536-well, clear/black plate (Catalog Number 353255)
as §4, §5, §6, §7, §8
Prepare Biotinylated IWR2 stock solution (3.33× stock) for TOTL and compound wells: 200 nM Biotin-IWR2 in 5% DMSO/AB1b buffer
as §9
Prepare POSITIVE CONTROL well stock solution (3.33× stock): 200 nM XAV939 in 200 nM Biotin-IWR2/5% DMSO/AB1b buffer
as §10
Prepare Eu/APC stock solution (5× stock): 3.5 nM Eu-SA/50 nM APC-His6Ab in AB2 buffer.
Add 25 μL/well 1.5% DMSO/AB1c buffer in each compound well to the compound concentration at 74 μM in 8.8% DMSO/AB1c buffer or in the 2 μL DMSO CONTROL wells (BLANK, TOTAL and POSITIVE wells) in the compound plate. Transfer 3 μL/well of above solution (solution 1,2,3) to an empty assay plate (BD1536-well plate) as follows: • TOTAL and cpd wells: Solution 1 (Biotin-IWR2): • BLANK wells: Solution 2 (No Biotin-IWR2): • POSITIVE CONTROL wells: Solution 3 (Biotin-IWR2+XAV939)
as §11, with “60 min. Read the assay plate immediately at excitation wavelength of 330 nm and emission wavelength of […] in time resolved fluorescence mode.” for “60 min.”
XAV939 (+ve control): 60 nM at ˜70% Inhibition
General Library compounds: 22.23 μM in 4% DMSO

[1] = Compounds I-1 to I-58, procedure in Example 118 (TR-FRET, Biotin-IWR2 60 nM, TNKS 60 nM), read-out: TNKS1 (IC50)

T1 sequence (O95271 1088-1327): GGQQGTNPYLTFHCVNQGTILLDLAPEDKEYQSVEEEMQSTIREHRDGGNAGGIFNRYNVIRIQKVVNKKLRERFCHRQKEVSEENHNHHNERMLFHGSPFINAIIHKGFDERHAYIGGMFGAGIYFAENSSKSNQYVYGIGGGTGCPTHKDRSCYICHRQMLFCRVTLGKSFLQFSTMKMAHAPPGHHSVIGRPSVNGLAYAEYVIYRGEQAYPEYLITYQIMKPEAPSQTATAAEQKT
T2 sequence (Q9H2K2 934-1166): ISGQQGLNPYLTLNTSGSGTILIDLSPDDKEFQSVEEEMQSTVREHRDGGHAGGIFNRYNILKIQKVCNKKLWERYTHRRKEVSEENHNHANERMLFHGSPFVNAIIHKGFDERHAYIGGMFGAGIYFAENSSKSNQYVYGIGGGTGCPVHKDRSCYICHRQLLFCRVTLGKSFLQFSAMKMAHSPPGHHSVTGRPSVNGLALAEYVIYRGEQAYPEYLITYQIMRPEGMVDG

Compound: COCCOc1ccc(N2CCN(c3nc4c(cnn4C)c(=O)[nH]3)CC2)c(F)c1 [Compound I-30, 6-[4-[2-fluoro-4-(2-methoxyethoxy)phenyl]piperazin-1-yl]-1-methyl-5H-pyrazolo[3 4-d]pyrimidin-4-one]
IC50 (Tankyrase 1 (TNKS1)): 13 nM | IC50 (tankyrase 2 (TNKS2)): 234 nM

Compound: Cn1ncc2c(=O)[nH]c(N3CCN(c4ccc(F)cc4S(C)(=O)=O)CC3)nc21 [Compound I-22, 6-[4-(4-fluoro-2-methylsulfonyl-phenyl)piperazin-1-yl]-1-methyl-5H-pyrazolo[3 4-d]pyrimidin-4-one]
IC50 (Tankyrase 1 (TNKS1)): 44 nM | IC50 (tankyrase 2 (TNKS2)): 55 nM

Compound: 6-[4-(2- fluorophenyl)piperazin-1- yl]-1-methyl-5H- pyrazolo[4 3-c]pyridin-4- one [Compound I-7]
IC50 (Tankyrase 1 (TNKS1); [1]): 46 nM | IC50 (tankyrase 2 (TNKS2)): 41.2 nM

Compound: Cn1ncc2c(=O)[nH]c(N3CCN(c4ccc(S(C)(=O)=O)cc4F)CC3)nc21 [Compound I-21, 6-[4-(2-fluoro-4-methylsulfonyl-phenyl)piperazin-1-yl]-1-methyl-5H-pyrazolo[3 4-d]pyrimidin-4-one]
IC50 (Tankyrase 1 (TNKS1)): 55 nM | IC50 (tankyrase 2 (TNKS2)): 81.5 nM

Compound: Cn1ncc2c(=O)[nH]c(-c3ccc(C(F)(F)F)nc3)nc21 [Compound I-27, 1-methyl-6-[6-(trifluoromethyl)-3-pyridyl)-5H-pyrazolo[3 4-d]pyrimidin-4-one]
IC50 (Tankyrase 1 (TNKS1)): 385 nM | IC50 (tankyrase 2 (TNKS2)): 428 nM

Compound: Cn1ncc2c(=O)[nH]c(N3CCN(c4ccccc4C#N)CC3)cc21 [Compound I-17, 2-[4-(1-methyl-4-oxo-5H-pyrazolo[4 3-c]pyridin-6-yl)piperazin-1-yl]benzonitrile]
IC50 (Tankyrase 1 (TNKS1)): 103 nM | IC50 (tankyrase 2 (TNKS2)): 97 nM

Compound: COCCOc1cc(F)c(N2CCN(c3cc4c(cnn4C)c(=O)[nH]3)CC2)c(F)c1 [Compound I-53, 6-[4-[2 6-difluoro-4-(2-methoxyethoxy)phenyl]piperazin-1-yl]-1-methyl-5H-pyrazolo[4 3-c]pyridin-4-one]
IC50 (Tankyrase 1 (TNKS1)): 26 nM | IC50 (tankyrase 2 (TNKS2)): 19.3 nM

Compound: 6-[4-(3 5-dichloro-4- pyridyl)piperazin-1-yl]-1- methyl-5H-pyrazolo[4 3- c]pyridin-4-one [Compound I-47]
IC50 (Tankyrase 1 (TNKS1); [1]): 26 nM | IC50 (tankyrase 2 (TNKS2)): 29.1 nM

Compound: Cn1ncc2c(=O)[nH]c(N3CCN(c4ccc(F)c(C(F)(F)F)c4)CC3)nc21 [Compound I-39, 6-[4-(4-fluoro-3-(trifluoromethyl)phenyl]piperazin-1-yl]-1-methyl-5H-pyrazolo[3 4-d]pyrimidin-4-one]
IC50 (Tankyrase 1 (TNKS1)): 331 nM | IC50 (tankyrase 2 (TNKS2)): 303 nM

Compound: O=c1[nH]c(N2CCC(c3ccc(F)cc3)CC2)nc2[nH]ncc12 [Compound I-9, 6-[4-(4-fluorophenyl)-1-piperidyl]-1 5-dihydropyrazolo[3 4-d]pyrimidin-4-one]
IC50 (Tankyrase 1 (TNKS1)): 374 nM | IC50 (tankyrase 2 (TNKS2)): 664 nM

Compound: Cn1ncc2c(=O)[nH]c(N3CCN(c4ccc(C(C)(C)O)cc4F)CC3)nc21 [Compound I-44, 6-[4-[2-fluoro-4-(1-hydroxy-1-methyl-ethyl)phenyl]piperazin-1-yl]-1-methyl-5H-pyrazolo[3 4-d]pyrimidin-4-one]
IC50 (Tankyrase 1 (TNKS1)): 34 nM | IC50 (tankyrase 2 (TNKS2)): 95.3 nM

Other lines, results leading:

IC50 (Tankyrase 1 (TNKS1)): 165 nM | IC50 (tankyrase 2 (TNKS2)): 178 nM
Compound: Cn1ncc2c(=O)[nH]c(N3CCN(C4CCCC4)CC3)nc21 [Compound I-37, 6-(4-cyclopentylpiperazin-1-yl)-1-methyl-5H-pyrazolo[3 4-d]pyrimidin-4-one]

IC50 (Tankyrase 1 (TNKS1)): 504 nM | IC50 (tankyrase 2 (TNKS2)): 598 nM
Compound: Cn1ncc2c(=O)[nH]c(N3CCN(c4nccs4)CC3)nc21 [Compound I-38, 1-methyl-6-(4-thiazol-2-ylpiperazin-1-yl)-5H-pyrazolo[3 4-d]pyrimidin-4-one]

IC50 (Tankyrase 1 (TNKS1)): 10.9 nM | IC50 (tankyrase 2 (TNKS2)): 18.7 nM
Compound: Cn1ncc2c(=O)[nH]c(N3CCN(c4c(F)cccc4F)CC3)nc21 [Compound I-2, 6-[4-(2 6-difluorophenyl)piperazin-1-yl]-1-methyl-5H-pyrazolo[3 4-d]pyrimidin-4-one]

IC50 (Tankyrase 1 (TNKS1)): 51 nM | IC50 (tankyrase 2 (TNKS2)): 76.5 nM
Compound: Cn1ncc2c(=O)[nH]c(N3CCN(c4ccc(C#N)cc4F)CC3)nc21 [Compound I-28, 3-fluoro-4-[4-(1-methyl-4-oxo-5H-pyrazolo[3 4-d]pyrimidin-6-yl)piperazin-1-yl]benzonitrile]

IC50 (Tankyrase 1 (TNKS1)): 114 nM | IC50 (tankyrase 2 (TNKS2)): 147 nM
Compound: COCCOc1cc(F)cc(N2CCN(c3nc4c(cnn4C)c(=O)[nH]3)CC2)c1 [Compound I-55, 6-[4-[3-fluoro-5-(2-methoxyethoxy)phenyl]piperazin-1-yl]-1-methyl-5H-pyrazolo[3 4-d]pyrimidin-4-one]

IC50 (Tankyrase 1 (TNKS1)): 47 nM | IC50 (tankyrase 2 (TNKS2)): 55.3 nM
Compound: COc1cccnc1N1CCN(c2nc3c(cnn3C)c(=O)[nH]2)CC1 [Compound I-43, 6-[4-(3-methoxy-2-pyridyl)piperazin-1-yl]-1-methyl-5H-pyrazolo[3 4-d]pyrimidin-4-one]

IC50 (Tankyrase 1 (TNKS1)): 39 nM | IC50 (tankyrase 2 (TNKS2)): 47.1 nM
Compound: Cn1ncc2c(=O)[nH]c(N3CCN(c4ccc(F)cc4F)CC3)nc21 [Compound I-14, 6-[4-(2 4-difluorophenyl)piperazin-1-yl]-1-methyl-5H-pyrazolo[3 4-d]pyrimidin-4-one]

IC50 (Tankyrase 1 (TNKS1)): 55 nM | IC50 (tankyrase 2 (TNKS2)): 63.2 nM
Compound: Cn1ncc2c(=O)[nH]c(N3CCN(c4c(F)cc(C#N)cc4F)CC3)nc21 [Compound I-56, 3 5-difluoro-4-[4-(1-methyl-4-oxo-5H-pyrazolo[3 4-d]pyrimidin-6-yl)piperazin-1-yl]benzonitrile]

IC50 (Tankyrase 1 (TNKS1)): 107 nM | IC50 (tankyrase 2 (TNKS2)): 135 nM
Compound: CCOC(=O)c1ccc(N2CCN(c3nc4c(cnn4C)c(=O)[nH]3)CC2)cc1 [Compound I-41, ethyl 4-[4-(1-methyl-4-oxo-5H-pyrazolo[3 4-d]pyrimidin-6-yl)piperazin-1-yl]benzoate]

IC50 (Tankyrase 1 (TNKS1)): 47 nM | IC50 (tankyrase 2 (TNKS2)): 54.5 nM
Compound: Cn1ncc2c(=O)[nH]c(N3CCC(C#N)(c4ccccn4)CC3)nc21 [Compound I-52, 1-(1-methyl-4-oxo-5H-pyrazolo[3 4-d]pyrimidin-6-yl)-4-(2-pyridyl)piperidine-4-carbonitrile]

IC50 (Tankyrase 1 (TNKS1)): 155 nM | IC50 (tankyrase 2 (TNKS2)): 178 nM
Compound: Cn1ncc2c(=O)[nH]c(N3CCN(CC4CCCO4)CC3)nc21 (centres unmarked) [Compound I-32, 1-methyl-6-[4-(tetrahydrofuran-2-ylmethyl)piperazin-1-yl]-5H-pyrazolo[3 4-d]pyrimidin-4-one]
